Assays:
Na^+ currents = assay: Voltage-clamp inward Na^+ currents in DRG cells; format: cell-based, rat
Experimental: (§1) Experiments were performed on adult female Sprague Dawley rats. First and second series of the experiments were performed, respectively, in unidentified DRG neurons and a specific population of DRG neurons innervating the urinary bladder. The population of DRG neurons that innervate the urinary bladder were labeled by retrograde axonal transport of the fluorescent dye, Fast Blue (4% w/v) (Polyloy, Gross Umstadt, Germany), injected into the wall of the bladder in halothane-anesthetized animals 7 days before the dissociation. The dye was injected with a 28 gauge needle at three to six sites on the dorsal surface of the organ (5-6 μL per site, total volume of 20-30 μL). Each injection site was washed with saline to minimize contamination of adjacent organs with the dye.
(§2) Freshly dissociated neurons from DRG were prepared from halothane-anesthetized animals. L6 and S1 DRG were dissected from animals and then dissociated in a shaking bath for 25 minutes at 35° C. with 5 mL DMEM (Sigma) containing 0.3 mg/mL trypsin (Type 3, Sigma), 1 mg/mL collagenase (Type 1, Sigma), and 0.1 mg/mL deoxyribonuclease (Type 4, Sigma). Trypsin inhibitor (Type 2a, Sigma) was then added thereto to neutralize the activity of trypsin. Individual DRG cell bodies were isolated by trituration and then plated on a poly-L-lysine-coated 35 mm Petri dishes.
(§3) Dye-labeled primary afferent neurons that innervate the urinary bladder were identified using an inverted phase-contrast microscope (Nikon, Tokyo, Japan) with fluorescent attachments (UV-1A filter; excitation wavelength, 365 nm). Gigaohm-seal whole-cell recordings were performed at room temperature (20-22° C.) on each labeled neuron in a culture dish that usually contained three to seven labeled cells among a few hundred unlabeled neurons. The internal solution contained (in mmol/L): KCl 140, CaCl2 1, MgCl2 2, EGTA 11, HEPES 10, Mg-ATP 2, and Tris-GTP 0.4 adjusted to pH 7.4 with KOH. Patch electrodes had resistances of 1-4 MΩ when filled with the internal solution. Neurons were superfused at a flow rate of 1.5 mL/minutes with an external solution containing (in mmol/L): NaCl 150, KCl 5, CaCl2 2.5, MgCl2 1, HEPES 10, and D-glucose 10, adjusted to pH 7.4 with NaOH. All recordings were made with an Axopatch-1D patch-clamp amplifier (Axon Instruments, Foster City, Calif.), and data were acquired and analyzed by PCLAMP software (Axon Instruments).
Inward Na^+ currents were evoked by voltage steps to +60 mV, 800 ms long from a holding potential of −90 mV. Currents were measured at the maximum (peak) and normalized to control (before addition of the compound).

[1] = test system: delayed rectifier K^+ currents; assay: Delayed rectifier K^+ currents in Fast Blue-labeled capsaicin-sensitive bladder afferent neurons; format: cell-based, rat; conditions: 1.0 × 10^−6 mol/L
Experimental: as §1
Freshly dissociated neurons from DRG were prepared from halothane-anesthetized animals. […]
Dye-labeled primary afferent neurons that innervate the urinary bladder were identified using an inverted phase-contrast microscope (Nikon, Tokyo, Japan) with fluorescent attachments (UV-1A filter; excitation wavelength, 365 nm). […] All recordings were made with an Axopatch-1D patch-clamp amplifier (Axon Instruments, Foster City, Calif.), and data were acquired and analyzed by PCLAMP software (Axon Instruments).
In voltage-clamp recordings, outward K^+ currents and inward Na^+ currents were measured. […]

[2] = test system: delayed rectifier K^+ currents; assay: Voltage-clamp outward K^+ currents at HP −20 mV in unidentified DRG neurons; format: cell-based, rat; conditions: for K^+ current at HP: −20 mV, relative value (before compound = 1): unidentified DRG neurons
Experimental: as §1, §2, §3
In voltage-clamp recordings, outward K^+ currents and inward Na^+ currents were measured. For the isolation of K^+ currents, the external solution was changed to one containing (in mmol/L): choline-Cl 150, KOH 5, CaCl2 0.03, HEPES 10, Mg(OH)2 3, and D-glucose 10, adjusted to pH 7.4 with HCl.
In first series of experiments using unidentified DRG neurons, outward K^+ currents were evoked by voltage steps to +60 mV, 800 ms long from a holding potentials of −90 mV, this was followed by a 1-second conditioning prepulse to −20 mV followed by a second pulse to +60 mV, identical to the first in the sequence. In the second series of experiments using Fast Blue-labeled bladder afferent neurons, slowly-inactivating A-type K^+ currents were isolated by. subtraction of outward K^+ currents activated from a holding potential of −40 mV (on the condition of inactivation of the majority of slowly-inactivating A-type K^+ currents) from those activated from a holding potential of −120 mV (on the condition of full activation of slowly-inactivating A-type K^+ currents). A compound was added cumulatively, starting with a lower concentration. Currents were measured at the maximum (peak) and normalized to control (before addition of the compound).

dd male mice = conditions: mouse, in vivo, po, 7 days
Experimental: The test compound was administered orally or intraperitoneally to 3 animals per group of dd male mice (body weight, 20±1 g). Minimum lethal dose (MLD) value was obtained by observing mortality on the 7th day after the administration.

C[C@](O)(C(=O)Nc1cccc2c1C(=O)c1sccc1CS2(=O)=O)C(F)(F)F [Compound 1, (S)-(+)-N-(5,5-dioxido-10-oxo-4,10-dihydrothieno[3,2-c][l]benzothiepin-9-yl)-3,3,3-trifluoro-2-hydroxy-2-methylpropanamide]
influence upon Na^+ currents (Na^+ currents): does not exert influence
Na^+ ion currents, normalized to control (Na^+ currents; 1.0 × 10^−6 mol/L): 0.99 ± 0.02
Na^+ ion currents, normalized to control (Na^+ currents; 5.0 × 10^−4 mol/L): 1.00 ± 0.01
Na^+ ion currents, normalized to control (Na^+ currents; 5.0 × 10^−5 mol/L): 1.00 ± 0.01
Na^+ ion currents, normalized to control (Na^+ currents; 5.0 × 10^−6 mol/L): 1.00 ± 0.00
Na^+ ion currents, normalized to control (Na^+ currents; 5.0 × 10^−7 mol/L): 0.99 ± 0.01
Na^+ ion currents, normalized to control (Na^+ currents; 5.0 × 10^−8 mol/L): 0.99 ± 0.01
Delayed rectifier HP: −40 mV, normalized to control [1]: 1.10 ± 0.01
K^+ current at HP: −20 mV, relative value ([2]; 1.0 × 10^−5 mol/L, in the presence of 5 μmol/L verapamil): 1.00 ± 0.02
K^+ current at HP: −20 mV, relative value ([2]; 1.0 × 10^−5 mol/L, in the presence of 20 mmol/L tetraethylammonium): 1.01 ± 0.02
K^+ current at HP: −20 mV, relative value (before compound = 1) ([2]; 1.0 × 10^−5 mol/L): 0.88 ± 0.07
K^+ current at HP: −20 mV, relative value ([2]; 1.0 × 10^−6 mol/L, in the presence of 5 μmol/L verapamil): 1.00 ± 0.01
K^+ current at HP: −20 mV, relative value ([2]; 1.0 × 10^−6 mol/L, in the presence of 20 mmol/L tetraethylammonium): 1.00 ± 0.00
K^+ current at HP: −20 mV, relative value (before compound = 1) ([2]; 1.0 × 10^−6 mol/L): 1.00 ± 0.02
K^+ current at HP: −20 mV, relative value ([2]; 1.0 × 10^−7 mol/L, in the presence of 5 μmol/L verapamil): 1.00 ± 0.01
K^+ current at HP: −20 mV, relative value ([2]; 1.0 × 10^−7 mol/L, in the presence of 20 mmol/L tetraethylammonium): 0.99 ± 0.02
K^+ current at HP: −20 mV, relative value (before compound = 1) ([2]; 1.0 × 10^−7 mol/L): 1.02 ± 0.01
K^+ current at HP: −20 mV, relative value (before compound = 1) ([2]; 1.0 × 10^−8 mol/L): 0.98 ± 0.04
K^+ current at HP: −20 mV, relative value (before compound = 1) ([2]; 2.5 × 10^−8 mol/L): 1.01 ± 0.03
K^+ current at HP: −20 mV, relative value ([2]; 5.0 × 10^−4 mol/L, in the presence of 5 μmol/L verapamil): 0.83 ± 0.06
K^+ current at HP: −20 mV, relative value ([2]; 5.0 × 10^−4 mol/L, in the presence of 20 mmol/L tetraethylammonium): 0.25 ± 0.04
K^+ current at HP: −20 mV, relative value ([2]; 5.0 × 10^−4 mol/L, in the presence of 60 mmol/L tetraethylammonium): 0.54 ± 0.02
K^+ current at HP: −20 mV, relative value ([2]; 5.0 × 10^−5 mol/L, in the presence of 5 μmol/L verapamil): 0.98 ± 0.01
K^+ current at HP: −20 mV, relative value ([2]; 5.0 × 10^−5 mol/L, in the presence of 20 mmol/L tetraethylammonium): 0.84 ± 0.06
K^+ current at HP: −20 mV, relative value ([2]; 5.0 × 10^−5 mol/L, in the presence of 60 mmol/L tetraethylammonium): 0.95 ± 0.03
K^+ current at HP: −20 mV, relative value (before compound = 1) ([2]; 5.0 × 10^−5 mol/L): 0.81 ± 0.08
K^+ current at HP: −20 mV, relative value ([2]; 5.0 × 10^−6 mol/L, in the presence of 5 μmol/L verapamil): 1.01 ± 0.01
K^+ current at HP: −20 mV, relative value ([2]; 5.0 × 10^−6 mol/L, in the presence of 20 mmol/L tetraethylammonium): 0.98 ± 0.01
K^+ current at HP: −20 mV, relative value ([2]; 5.0 × 10^−6 mol/L, in the presence of 60 mmol/L tetraethylammonium): 0.97 ± 0.02
K^+ current at HP: −20 mV, relative value ([2]; 5.0 × 10^−7 mol/L, in the presence of 5 μmol/L verapamil): 1.00 ± 0.01
K^+ current at HP: −20 mV, relative value ([2]; 5.0 × 10^−7 mol/L, in the presence of 20 mmol/L tetraethylammonium): 1.01 ± 0.01
K^+ current at HP: −20 mV, relative value ([2]; 5.0 × 10^−7 mol/L, in the presence of 60 mmol/L tetraethylammonium): 0.97 ± 0.03
K^+ current at HP: −20 mV, relative value (before compound = 1) ([2]; 5.0 × 10^−7 mol/L): 1.01 ± 0.02
K^+ current at HP: −20 mV, relative value ([2]; 5.0 × 10^−8 mol/L, in the presence of 5 μmol/L verapamil): 1.00 ± 0.00
K^+ current at HP: −20 mV, relative value ([2]; 5.0 × 10^−8 mol/L, in the presence of 20 mmol/L tetraethylammonium): 0.99 ± 0.01
K^+ current at HP: −20 mV, relative value ([2]; 5.0 × 10^−8 mol/L, in the presence of 60 mmol/L tetraethylammonium): 1.00 ± 0.01
K^+ current at HP: −20 mV, relative value (before compound = 1) ([2]; 5.0 × 10^−8 mol/L): 1.00 ± 0.01
K^+ current at HP: −20 mV, relative value ([2]; 5.0 × 10^−9 mol/L, in the presence of 20 mmol/L tetraethylammonium): 0.99 ± 0.00
K^+ current at HP: −20 mV, relative value (before compound = 1) ([2]; 5.0 × 10^−9 mol/L): 0.98 ± 0.02
influence upon delayed rectifier K^+ currents ([2]; unidentified DRG cells, HP −20 mV): does not have no influences (little influences)
Minimum lethal dose (MLD) (dd male mice): > 1,000 mg/kg
